Measured values taken from PubChem BioAssay (NCI).
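Cultured in 96-well plates, cells were exposed to test compound for 48 hours across five concentrations. At the TGI there is no net growth.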

Tests used:
Test in all cases: inhibition of tumour cell growth, NCI panel, 48 h
OVCAR-3 ovarian = test system: OVCAR-3 ovarian
MCF7 breast = test system: MCF7 breast
SF-268 CNS = test system: SF-268 CNS
UACC-62 melanoma = test system: UACC-62 melanoma
HS 578T breast = test system: HS 578T breast
OVCAR-4 ovarian = test system: OVCAR-4 ovarian
T-47D breast = test system: T-47D breast
MDA-N = test system: MDA-N
MDA-MB-435 = test system: MDA-MB-435
A498 renal = test system: A498 renal

Structure (SMILES)	TGI (OVCAR-3 ovarian)	TGI (MCF7 breast)	TGI (SF-268 CNS)	TGI (UACC-62 melanoma)	TGI (HS 578T breast)	TGI (OVCAR-4 ovarian)	TGI (T-47D breast)	TGI (MDA-N)	TGI (MDA-MB-435)	TGI (A498 renal)
O=C(OCc1ccccc1)C1(N2CN(C3(C(=O)OCc4ccccc4)CCCC3)CN(C3(C(=O)OCc4ccccc4)CCCC3)C2)CCCC1	> 10 µM	> 10 µM	> 10 µM	> 10 µM	> 10 µM	> 10 µM	> 10 µM	> 10 µM	> 10 µM	–
C=CCNC(=O)NC1=CSC2=NC(=O)C3(NN12)c1ccccc1-c1ccccc13	–	> 10 µM	> 10 µM	> 10 µM	> 10 µM	> 10 µM	> 10 µM	–	> 10 µM	–
Cc1cc(S(=O)(=O)O)c(NC(=O)C(=O)C2C=CCS2(=O)=O)cc1Cl (configuration not stated)	> 100 µM	–	> 100 µM	> 100 µM	–	> 100 µM	–	–	–	> 100 µM
O=C1NC2(CCCCC2)C2CCCCCC12 (configuration not stated)	> 100 µM	–	> 100 µM	> 100 µM	–	> 100 µM	–	–	–	> 100 µM
Cc1ccc(C(C2C(=O)N(C)C(=O)N(C)C2=O)C(F)(F)C(=O)N(C)C)cc1 (configuration not stated)	> 100 µM	> 100 µM	> 100 µM	> 100 µM	–	> 100 µM	> 100 µM	–	> 100 µM	> 100 µM
COC(=O)/C=C1\CCC(C)(C(=O)NS(=O)(=O)c2ccc(C)cc2)C1(C)C (configuration not stated)	> 100 µM	> 100 µM	> 100 µM	> 100 µM	–	> 100 µM	> 100 µM	> 100 µM	> 100 µM	> 100 µM
COC(=O)c1cc(C#N)[nH]c1-c1ccc(C)s1	> 100 µM	–	> 100 µM	> 100 µM	–	> 100 µM	> 100 µM	> 100 µM	> 100 µM	68.1 µM
C=C1C(=O)OCC2C(C(=O)O)=CC3C(C)C(C)=CC123 (configuration not stated)	31.3 µM	23.9 µM	32.8 µM	11.8 µM	–	20.6 µM	–	–	–	18.2 µM
Cc1cccc(NC(=O)C(=O)C(C(=O)c2ccccc2F)C2OC(=O)c3ccccc32)c1Cl (configuration not stated)	–	–	80.9 µM	85.4 µM	–	> 100 µM	–	–	–	> 100 µM
CC(=O)OC(OC(C)=O)n1cc(C=O)c2ccccc21	> 100 µM	> 100 µM	–	–	> 100 µM	> 100 µM	> 100 µM	–	–	> 100 µM
[N-]=[N+]=NCc1cccc(Nc2cc(=O)[nH]c(=O)[nH]2)c1	> 100 µM	> 100 µM	> 100 µM	> 100 µM	> 100 µM	–	> 100 µM	> 100 µM	> 100 µM	> 100 µM
C=C(C)C(=O)[C@@]12C(=O)[C@@H](C)CC[C@H]1[C@H](C)C[C@@H]2C=C(C)C	38.5 µM	52.3 µM	36 µM	> 100 µM	–	> 100 µM	–	59.1 µM	54.3 µM	> 100 µM
COc1ccc2c(c1)n([O-])c(C#N)c(N1CCN(c3ccc([N+](=O)[O-])cc3)CC1)[n+]2=O	> 100 µM	–	> 34.4 µM	> 100 µM	> 24.4 µM	> 100 µM	14.8 µM	> 100 µM	97.3 µM	–
COc1cccc(/C=N/[N-]C(N)=O)c1[O-].[Ni+2].[OH3+].c1cnc2c(c1)ccc1cccnc12	> 100 µM	–	> 100 µM	> 100 µM	–	> 100 µM	–	–	–	> 100 µM
